Assay results reported in patent US20230391742A1, “SMALL MOLECULE COMPOUND AND USE AND COMPOSITION THEREOF” (SOOCHOW UNIVERSITY, priority 2021, published 2023).

Legend:
SKOV3 cells [1] = assay: Immunoblot of cleaved PARP (apoptosis) in SKOV3 cells; type: cell-based, human
Description: The ovarian cancer cell line SKOV3 cells were plated into 24-well plates at a density of 20,000 cells/well, and after 16-24 hours of incubation, NAI-008 was added to a final concentration of 20 μM. After 4 hours, additional cisplatin or doxorubicin was added to a final concentration of 20 μM. After 48 hours, the expression of PARP cleaved by apoptotic protein was detected by immunoblotting.

SKOV3 cells [2] = assay: Clonal colony formation experiment in SKOV3 cells; type: cell-based, human; conditions: NAI-008 20 μM combined with cisplatin or doxorubicin (0-40 μM), SKOV3, FIG. 2B
Description: (§1) SKOV3 cell line: purchased from ATCC, an ovarian cancer tumor cell line that positively expresses NAC1.
(§2) The culture method of SKOV3 cell line was as follows: the cells were inoculated in DMEM (InVitrogen) medium containing 10% calf serum, and placed in a CO2 incubator with a volume fraction of 5% at 37° C., cultivated for two weeks.
In this example, conventional clonal colony formation experiments were used. The specific method included the following:
SKOV3 cells were treated according to the experimental requirements for 24-48 hours, digested with trypsin, and the cell suspension was repeatedly pipetted to make the cells fully dispersed. The percentage of single cells were above 95%, and counted on a hemocytometer. Based on a concentration of 2000 cells per dish, 2 ml of cell suspension was inoculated into the culture dish, so that the cells were evenly dispersed. Culturing in 37° C., 5% CO2 for 7 to 14 days, with fresh medium from time to time. Observation under an inverted microscope. When macroscopic colonies appeared in the petri dish, the culture was terminated, the medium was discarded, and PBS was used to rinse twice. Crystal violet staining for 20 minutes. The results were analyzed after 2-3 washes with PBS.

SKOV3 cells [3] = assay: MTT cell growth assay in SKOV3 cells; type: cell-based, human
Description: as §1, §2
This embodiment used a conventional MTT method. The specific method included following:
SKOV3 cells were plated overnight in 96-well plates at a density of 3000 cells/well. […] After 48 hours, 10 μl of MTT (5 mg/ml) was added to each well, and the supernatant was discarded after incubation at 37° C. for 4 hours. After dissolving the purple crystal with 150 μl of dimethyl sulfoxide, the plates were placed in a microplate reader (Bio-Rad Company) to detect the absorbance at 570 nm.

NAC1 protein dimer = target: T1, NAC1 protein dimer (Homo sapiens, UniProt Q96RE7); assay: Dimer formation of NAC1 protein detected by immunoprecipitation and immunoblotting; type: biochemical; conditions: FIG. 1
T1 sequence (Q96RE7 1-527): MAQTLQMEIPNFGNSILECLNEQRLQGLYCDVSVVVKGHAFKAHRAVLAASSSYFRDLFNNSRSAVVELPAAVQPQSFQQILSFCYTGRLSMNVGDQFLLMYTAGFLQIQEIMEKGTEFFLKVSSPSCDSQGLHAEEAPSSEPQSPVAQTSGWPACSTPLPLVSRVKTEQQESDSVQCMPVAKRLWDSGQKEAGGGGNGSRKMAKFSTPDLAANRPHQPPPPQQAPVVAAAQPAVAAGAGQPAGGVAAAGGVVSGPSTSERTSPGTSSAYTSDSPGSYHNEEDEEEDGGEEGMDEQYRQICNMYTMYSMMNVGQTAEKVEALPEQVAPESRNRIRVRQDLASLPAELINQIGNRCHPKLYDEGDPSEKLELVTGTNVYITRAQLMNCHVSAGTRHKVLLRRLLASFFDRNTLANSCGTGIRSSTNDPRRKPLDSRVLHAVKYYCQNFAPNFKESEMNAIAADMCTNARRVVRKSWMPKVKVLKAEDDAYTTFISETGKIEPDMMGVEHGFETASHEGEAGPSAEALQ
Source text: For the selected NAI-008 (self-synthesized), the dimer formation of the target NAC1 protein by small molecule compounds was detected by immunoprecipitation technology and immunoblotting.

CC(C)(C)c1ccc(OCC(=O)NCC(=O)c2ccc(OC(=O)c3ccc4c(c3)OCO4)cc2)cc1 [NAI-008]
expression of apoptotic proteins (cleaved PARP) versus cisplatin or doxorubicin alone (SKOV3 cells [1]; NAI-008 20 μM plus cisplatin or doxorubicin 20 μM, SKOV3, 48 hours, FIG. 2C): significantly higher | apoptosis, compound alone (SKOV3 cells [1]; NAI-008 alone, SKOV3): did not cause significant apoptosis | enhancement of cell proliferation inhibition by cisplatin and doxorubicin (colony formation) (SKOV3 cells [2]): significantly enhances the inhibition of cell growth and proliferation by cisplatin and doxorubicin | toxic effects on cells, single application (SKOV3 cells [3]; NAI-008 alone, SKOV3, FIGS. 2A and 2B): did not cause significant toxic effects on cells | enhancement of cell growth inhibition by cisplatin and doxorubicin (MTT) (SKOV3 cells [3]; NAI-008 at final concentration 20 uM combined with cisplatin or doxorubicin (0-40 μM), SKOV3, 48 hours, FIG. 2A): significantly enhances the inhibition of cell growth and proliferation by cisplatin and doxorubicin | enhancement of inhibitory effect of cisplatin on proliferation of SKOV3 (MTT screening) (SKOV3 cells [3]; second-round screening, combination with cisplatin, SKOV3): strongly enhances the inhibitory effect of cisplatin on the proliferation of ovarian cancer cell line SKOV3 | formation of NAC1 protein dimer (NAC1 protein dimer): inhibits the formation of NAC1 protein dimer
